Reference: the supplement of paper PMC10307832

Legend:
Test in all cases: relative viability (nuclei count vs DMSO), 5 days (fraction); higher = more cells survive
A549 = tested on: A549
How it was run: (§1)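 Lung cancer cell lines were pin-tool dosed in 1536-well plates on the day after seeding, with either a lone drug or a fixed anchor-drug dose plus five library-drug doses (not always all listed) in √10 steps. Nuclei were counted on 4× images after 5 days. Relative viability is the ratio of treated-well to vehicle-well nuclei counts, with each value a median of duplicate plates.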

NCI-H1299 = tested on: NCI-H1299
How it was run: as §1

NCI-H1651 = tested on: NCI-H1651
How it was run: as §1

EBC-1 = tested on: EBC-1
How it was run: as §1

ChaGo-K-1 = tested on: ChaGo-K-1
How it was run: as §1

SK-MES-1 = tested on: SK-MES-1
How it was run: as §1

NCI-H1703 = tested on: NCI-H1703
How it was run: as §1

IA-LM = tested on: IA-LM
How it was run: as §1

Calu-6 = tested on: Calu-6
How it was run: as §1

## O=C(O)c1ccc(-c2c[nH]c3ncc(-c4ccccc4)cc23)cc1C1CCCC1 + CC1(C)CCC(c2ccc(Cl)cc2)=C(CN2CCN(c3ccc(C(=O)NS(=O)(=O)c4ccc(N[C@H](CCN5CCOCC5)CSc5ccccc5)c(S(=O)(=O)C(F)(F)F)c4)cc3)CC2)C1 [Navitoclax] (partner 0.5 µM)
A549; first compound 0.04 µM
  relative viability: 1.09
A549; first compound 0.1265 µM
  relative viability: 1.24
A549; first compound 0.4 µM
  relative viability: 1.17
A549; first compound 1.265 µM
  relative viability: 0.939
NCI-H1299; first compound 0.04 µM
  relative viability: 1.07
NCI-H1299; first compound 0.1265 µM
  relative viability: 1.08
NCI-H1299; first compound 0.4 µM
  relative viability: 1.02
NCI-H1299; first compound 1.265 µM
  relative viability: 0.942
NCI-H1651; first compound 0.04 µM
  relative viability: 0.926
NCI-H1651; first compound 0.1265 µM
  relative viability: 0.995
NCI-H1651; first compound 0.4 µM
  relative viability: 0.943
NCI-H1651; first compound 1.265 µM
  relative viability: 0.696
EBC-1; first compound 0.04 µM
  relative viability: 0.475
EBC-1; first compound 0.1265 µM
  relative viability: 0.404
EBC-1; first compound 0.4 µM
  relative viability: 0.352
EBC-1; first compound 1.265 µM
  relative viability: 0.279
ChaGo-K-1; first compound 0.04 µM
  relative viability: 1.16
ChaGo-K-1; first compound 0.1265 µM
  relative viability: 1.3
ChaGo-K-1; first compound 0.4 µM
  relative viability: 0.888
ChaGo-K-1; first compound 1.265 µM
  relative viability: 1.32
SK-MES-1; first compound 0.04 µM
  relative viability: 1.19
SK-MES-1; first compound 0.1265 µM
  relative viability: 1.24
SK-MES-1; first compound 0.4 µM
  relative viability: 1.05
SK-MES-1; first compound 1.265 µM
  relative viability: 0.798
NCI-H1703; first compound 0.1265 µM
  relative viability: 1.11
NCI-H1703; first compound 0.4 µM
  relative viability: 1.03
NCI-H1703; first compound 1.265 µM
  relative viability: 1.11
IA-LM; first compound 0.04 µM
  relative viability: 0.925
IA-LM; first compound 0.1265 µM
  relative viability: 0.829
IA-LM; first compound 0.4 µM
  relative viability: 0.89
IA-LM; first compound 1.265 µM
  relative viability: 0.576
Calu-6; first compound 0.04 µM
  relative viability: 0.821
Calu-6; first compound 0.1265 µM
  relative viability: 0.732
Calu-6; first compound 0.4 µM
  relative viability: 0.719
Calu-6; first compound 1.265 µM
  relative viability: 0.55

## NC(=O)Nc1cc(-c2cccc(F)c2)sc1C(=O)N[C@H]1CCCNC1 [AZD7762] + CC1(C)CCC(c2ccc(Cl)cc2)=C(CN2CCN(c3ccc(C(=O)NS(=O)(=O)c4ccc(N[C@H](CCN5CCOCC5)CSc5ccccc5)c(S(=O)(=O)C(F)(F)F)c4)cc3)CC2)C1 [Navitoclax] (partner 0.5 µM)
A549; first compound 0.01 µM
  relative viability: 1.18
A549; first compound 0.03162 µM
  relative viability: 1.29
A549; first compound 0.1 µM
  relative viability: 1.2
A549; first compound 0.3162 µM
  relative viability: 0.898
A549; first compound 1 µM
  relative viability: 0.269
NCI-H1299; first compound 0.01 µM
  relative viability: 1.06
NCI-H1299; first compound 0.03162 µM
  relative viability: 1.06
NCI-H1299; first compound 0.1 µM
  relative viability: 1.09
NCI-H1299; first compound 0.3162 µM
  relative viability: 1.08
NCI-H1299; first compound 1 µM
  relative viability: 0.976
NCI-H1651; first compound 0.01 µM
  relative viability: 1.16
NCI-H1651; first compound 0.03162 µM
  relative viability: 0.964
NCI-H1651; first compound 0.1 µM
  relative viability: 0.922
NCI-H1651; first compound 0.3162 µM
  relative viability: 0.855
NCI-H1651; first compound 1 µM
  relative viability: 0.283
EBC-1; first compound 0.01 µM
  relative viability: 0.524
EBC-1; first compound 0.03162 µM
  relative viability: 0.427
EBC-1; first compound 0.1 µM
  relative viability: 0.292
EBC-1; first compound 0.3162 µM
  relative viability: 0.299
EBC-1; first compound 1 µM
  relative viability: 0.182
ChaGo-K-1; first compound 0.01 µM
  relative viability: 0.934
ChaGo-K-1; first compound 0.03162 µM
  relative viability: 1
ChaGo-K-1; first compound 0.1 µM
  relative viability: 0.913
ChaGo-K-1; first compound 0.3162 µM
  relative viability: 0.813
ChaGo-K-1; first compound 1 µM
  relative viability: 0.664
SK-MES-1; first compound 0.01 µM
  relative viability: 1.24
SK-MES-1; first compound 0.03162 µM
  relative viability: 1.38
SK-MES-1; first compound 0.1 µM
  relative viability: 1.41
SK-MES-1; first compound 0.3162 µM
  relative viability: 1.28
SK-MES-1; first compound 1 µM
  relative viability: 0.645
NCI-H1703; first compound 0.01 µM
  relative viability: 0.673
NCI-H1703; first compound 0.03162 µM
  relative viability: 0.286
NCI-H1703; first compound 0.1 µM
  relative viability: 0.253
NCI-H1703; first compound 0.3162 µM
  relative viability: 0.178
NCI-H1703; first compound 1 µM
  relative viability: 0.114
IA-LM; first compound 0.01 µM
  relative viability: 0.992
IA-LM; first compound 0.03162 µM
  relative viability: 0.858
IA-LM; first compound 0.1 µM
  relative viability: 0.915
IA-LM; first compound 0.3162 µM
  relative viability: 0.985
IA-LM; first compound 1 µM
  relative viability: 0.187
Calu-6; first compound 0.01 µM
  relative viability: 0.813
Calu-6; first compound 0.03162 µM
  relative viability: 0.812
Calu-6; first compound 0.1 µM
  relative viability: 0.531
Calu-6; first compound 0.3162 µM
  relative viability: 0.129
Calu-6; first compound 1 µM
  relative viability: 0.091

## CC1(C)CCC(c2ccc(Cl)cc2)=C(CN2CCN(c3ccc(C(=O)NS(=O)(=O)c4ccc(N[C@H](CCN5CCOCC5)CSc5ccccc5)c(S(=O)(=O)C(F)(F)F)c4)cc3)CC2)C1 [Navitoclax] + CS(=O)(=O)CCNCc1ccc(-c2ccc3ncnc(Nc4ccc(OCc5cccc(F)c5)c(Cl)c4)c3c2)o1 [Lapatinib] (partner 2 µM)
A549; first compound 0.005 µM
  relative viability: 1.06
A549; first compound 0.01581 µM
  relative viability: 1.02
A549; first compound 0.05 µM
  relative viability: 1.07
A549; first compound 0.1581 µM
  relative viability: 0.945
A549; first compound 0.5 µM
  relative viability: 0.949
NCI-H1299; first compound 0.005 µM
  relative viability: 0.931
NCI-H1299; first compound 0.01581 µM
  relative viability: 0.956
NCI-H1299; first compound 0.05 µM
  relative viability: 1
NCI-H1299; first compound 0.1581 µM
  relative viability: 0.979
NCI-H1299; first compound 0.5 µM
  relative viability: 1
NCI-H1651; first compound 0.005 µM
  relative viability: 0.767
NCI-H1651; first compound 0.01581 µM
  relative viability: 0.984
NCI-H1651; first compound 0.1581 µM
  relative viability: 0.803
NCI-H1651; first compound 0.5 µM
  relative viability: 0.837
EBC-1; first compound 0.005 µM
  relative viability: 0.181
EBC-1; first compound 0.01581 µM
  relative viability: 0.2
EBC-1; first compound 0.05 µM
  relative viability: 0.193
EBC-1; first compound 0.1581 µM
  relative viability: 0.245
EBC-1; first compound 0.5 µM
  relative viability: 0.212
SK-MES-1; first compound 0.005 µM
  relative viability: 0.462
SK-MES-1; first compound 0.01581 µM
  relative viability: 0.552
SK-MES-1; first compound 0.05 µM
  relative viability: 0.497
SK-MES-1; first compound 0.1581 µM
  relative viability: 0.458
SK-MES-1; first compound 0.5 µM
  relative viability: 0.523
NCI-H1703; first compound 0.005 µM
  relative viability: 0.928
NCI-H1703; first compound 0.01581 µM
  relative viability: 1.18
NCI-H1703; first compound 0.05 µM
  relative viability: 1.34
NCI-H1703; first compound 0.1581 µM
  relative viability: 1.27
NCI-H1703; first compound 0.5 µM
  relative viability: 1.01
IA-LM; first compound 0.005 µM
  relative viability: 0.659
IA-LM; first compound 0.01581 µM
  relative viability: 1.16
IA-LM; first compound 0.05 µM
  relative viability: 1.06
IA-LM; first compound 0.1581 µM
  relative viability: 1.02
IA-LM; first compound 0.5 µM
  relative viability: 0.903
Calu-6; first compound 0.005 µM
  relative viability: 1.14
Calu-6; first compound 0.01581 µM
  relative viability: 1.13
Calu-6; first compound 0.05 µM
  relative viability: 1.05
Calu-6; first compound 0.1581 µM
  relative viability: 1.04
Calu-6; first compound 0.5 µM
  relative viability: 1.01
